Values quoted from earlier work in patent US20090255536A1, “Biofilm-Inhibiting Catheters and Tubings” (priority 2008, published 2009).

Legend:
Staphylococcus aureus = settings: topical exogenous gNO at 200 ppm for extended periods of time
Group B Streptococcus = settings: topical exogenous gNO at 200 ppm for extended periods of time
Escherichia coli = settings: topical exogenous gNO at 200 ppm for extended periods of time
[1] = tested on: S. aureus and P. aeruginosa; settings: exogenous gNO at 200 ppm
[2] = tested on: cultured human dermal fibroblasts; settings: gNO at 200 ppm for extended periods of time
Candida albicans = settings: topical exogenous gNO at 200 ppm for extended periods of time
Pseudomonas aeruginosa = settings: topical exogenous gNO at 200 ppm for extended periods of time

[N]=O [gNO, nitric oxide]
growth of Staphylococcus aureus (Staphylococcus aureus): inhibited and prevented the growth
growth of Group B Streptococcus (Group B Streptococcus): inhibited and prevented the growth
growth of Escherichia coli (Escherichia coli): inhibited and prevented the growth
time to clear nosocomial pneumonia caused by microbial pathogens [1]: about 6 hours
cytotoxic effects on cultured human dermal fibroblasts [2]: without any cytotoxic effects
growth of Candida albicans (Candida albicans): inhibited and prevented the growth
growth of Pseudomonas aeruginosa (Pseudomonas aeruginosa): inhibited and prevented the growth
